From ChEMBL document CHEMBL3779792, “Anti-proliferative evaluation of monoterpene derivatives against leukemia” (Eur J Med Chem, 2016)
pEC50: −log10 of the molar value.

How the values were obtained:
[1] = test system: HepG2; test: Cytotoxicity against human HepG2 cells after 72 hrs by Cell-Titer Glo assay; type: functional, cell-based; conditions: HepG2, 72 h
[2] = test system: Raji; test: Cytotoxicity against human Raji cells after 72 hrs by Cell-Titer Glo assay; type: functional, cell-based
[3] = Cytotoxicity against human NALM6 cells after 72 hrs by Cell-Titer Glo assay; type: functional, cell-based; conditions: NALM-6, 72 h
[4] = Cytotoxicity against human SEM cells after 72 hrs by Cell-Titer Glo assay; type: functional, cell-based
[5] = test system: BJ; test: Cytotoxicity against human BJ cells after 72 hrs by Cell-Titer Glo assay; type: cell-based
[6] = test system: HEK293; test: Cytotoxicity against HEK293 cells after 72 hrs by Cell-Titer Glo assay; type: cell-based; conditions: Homo sapiens, HEK293, 72 h
[7] = test system: Jurkat; test: Cytotoxicity against human Jurkat cells after 72 hrs by Cell-Titer Glo assay; type: functional, cell-based

Row | SMILES | pEC50 [1] | pEC50 [2] | pEC50 [3] | pEC50 [4] | pEC50 [5] | pEC50 [6] | pEC50 [7]
1 | C=C[C@@](C)(/C=C/c1ccc(-c2cccc(F)c2)cc1)CCC=C(C)C | < 4.28 | < 4.58 | < 4.36 | < 4.44 | < 4.44 | < 4.44 | –
2 | C=C[C@@](C)(/C=C/c1ccc(Nc2ccc3c(c2)OCO3)cc1)CCC=C(C)C | < 4.28 | < 4.58 | < 4.36 | < 4.44 | < 4.44 | < 4.44 | –
3 | C=C[C@@](C)(/C=C/c1ccc(Nc2ccc(OC)cc2)cc1)CCC=C(C)C | < 4.28 | < 4.58 | < 4.36 | < 4.44 | < 4.44 | < 4.44 | –
4 | C=C[C@@](C)(/C=C/c1ccc(Nc2cccc(OC(F)(F)F)c2)cc1)CCC=C(C)C | < 4.28 | < 4.58 | < 4.36 | < 4.44 | < 4.44 | < 4.44 | –
5 | CCOC(=O)/C=C/c1cc(/C=C/[C@](C)(/C=C/c2ccc(OC)cc2)CCC=C(C)C)ccc1O | < 4.28 | < 4.58 | < 4.36 | < 4.44 | < 4.44 | < 4.44 | < 4.31
6 | C=C[C@@](C)(/C=C/c1ccc(Nc2ccc(OC)c(OC)c2)cc1)CCC=C(C)C | < 4.28 | < 4.58 | < 4.36 | < 4.44 | < 4.44 | < 4.44 | –
7 | C=C[C@@](C)(/C=C/c1ccc(Nc2c(F)cc(F)cc2F)cc1)CCC=C(C)C | < 4.28 | < 4.58 | < 4.36 | < 4.44 | < 4.44 | < 4.44 | –
8 | C=C[C@@](C)(/C=C/c1ccc(-c2ccc(Cl)c(Cl)c2)cc1)CCC=C(C)C | < 4.28 | < 4.58 | < 4.36 | < 4.44 | < 4.44 | < 4.44 | –
9 | C=C[C@@](C)(/C=C/c1ccc(Nc2ccc(F)cc2)cc1)CCC=C(C)C | < 4.28 | < 4.58 | < 4.36 | < 4.44 | < 4.44 | < 4.44 | –
10 | CC(C)=CCC[C@](C)(/C=C/c1ccc(O)cc1)/C=C/c1cccc(F)c1 | < 4.28 | < 4.58 | < 4.36 | < 4.44 | < 4.44 | < 4.44 | –
11 | C=C[C@@](C)(/C=C/c1ccc(-c2ccccc2)cc1)CCC=C(C)C | < 4.28 | < 4.58 | < 4.36 | < 4.44 | < 4.44 | < 4.44 | –
12 | C=C[C@@](C)(/C=C/c1ccc(Nc2cc(F)cc(F)c2)cc1)CCC=C(C)C | < 4.28 | < 4.58 | < 4.36 | < 4.44 | < 4.44 | < 4.44 | –
13 | C=C[C@@](C)(/C=C/c1ccc(Nc2cc(F)c(F)c(F)c2)cc1)CCC=C(C)C | < 4.28 | < 4.58 | < 4.36 | < 4.44 | < 4.44 | < 4.44 | –
14 | C=C[C@@](C)(/C=C/c1ccc(-c2ccc(Cl)cc2)cc1)CCC=C(C)C | < 4.28 | < 4.58 | < 4.36 | < 4.44 | < 4.44 | < 4.44 | –
15 | C=C[C@@](C)(/C=C/c1ccc(-c2cccc(Br)c2)cc1)CCC=C(C)C | < 4.28 | < 4.58 | < 4.36 | < 4.44 | < 4.44 | < 4.44 | –
16 | C=C[C@@](C)(/C=C/c1ccc(Nc2cccc(C(F)(F)F)c2)cc1)CCC=C(C)C | < 4.28 | < 4.58 | < 4.36 | < 4.44 | < 4.44 | < 4.44 | –

Row | SMILES | pEC50 [1] | pEC50 [2] | pEC50 [3] | pEC50 [4] | pEC50 [5] | pEC50 [6] | pEC50 [7]
17 | C=C[C@@](C)(/C=C/c1ccc(Nc2ccc(Cl)c(F)c2)cc1)CCC=C(C)C | < 4.28 | < 4.58 | < 4.36 | < 4.44 | < 4.44 | < 4.44 | –
18 | C=C[C@@](C)(/C=C/c1ccc(Nc2ccc(Cl)c(Cl)c2)cc1)CCC=C(C)C | < 4.28 | < 4.58 | < 4.36 | < 4.44 | < 4.44 | < 4.44 | –
19 | C=C[C@@](C)(/C=C/c1ccc(-c2ccc(F)cc2)cc1)CCC=C(C)C | < 4.28 | < 4.58 | < 4.36 | < 4.44 | < 4.44 | < 4.44 | –
20 | C=C[C@@](C)(/C=C/c1ccc(Nc2ccc(F)c(F)c2)cc1)CCC=C(C)C | < 4.28 | < 4.58 | < 4.36 | < 4.44 | < 4.44 | < 4.44 | –
21 | C=C[C@@](C)(/C=C/c1ccc(Nc2ccc(Cl)cc2)cc1)CCC=C(C)C | < 4.28 | < 4.58 | < 4.36 | < 4.44 | < 4.44 | < 4.44 | –
22 | C=C[C@@](C)(/C=C/c1ccc(Nc2cc(F)c(F)cc2F)cc1)CCC=C(C)C | < 4.28 | < 4.58 | < 4.36 | < 4.44 | < 4.44 | < 4.44 | –
23 | CC(C)=CCC[C@@](C)(/C=C/c1ccccc1)/C=C/c1ccc(O)cc1 | < 4.28 | < 4.58 | < 4.36 | < 4.44 | < 4.44 | < 4.44 | –
24 | C=C[C@@](C)(/C=C/c1ccc(Nc2ccc(OC(F)(F)F)cc2)cc1)CCC=C(C)C | < 4.28 | < 4.58 | < 4.36 | < 4.44 | < 4.44 | < 4.44 | –
25 | C=C[C@@](C)(/C=C/c1ccc(Nc2cc(C(F)(F)F)cc(C(F)(F)F)c2)cc1)CCC=C(C)C | < 4.28 | < 4.58 | < 4.36 | < 4.44 | < 4.44 | < 4.44 | –
26 | CC(C)=CCC[C@@](C)(/C=C/c1ccc(C)cc1)/C=C/c1ccc(O)cc1 | < 4.28 | < 4.58 | < 4.36 | < 4.44 | < 4.44 | < 4.44 | –
27 | C=C[C@@](C)(/C=C/c1ccc(-c2c(F)c(F)c(F)c(F)c2F)cc1)CCC=C(C)C | < 4.28 | < 4.58 | < 4.36 | < 4.44 | < 4.44 | < 4.44 | –
28 | C=C[C@@](C)(/C=C/c1ccc(Nc2ccccc2)cc1)CCC=C(C)C | < 4.28 | < 4.58 | < 4.36 | < 4.44 | < 4.44 | < 4.44 | –
29 | C=C[C@@](C)(/C=C/c1ccc(Nc2ccc(C(F)(F)F)cc2)cc1)CCC=C(C)C | < 4.28 | < 4.58 | < 4.36 | < 4.44 | < 4.44 | < 4.44 | –
30 | C=C[C@@](C)(/C=C/c1ccc(Nc2ccc(OC)c(F)c2)cc1)CCC=C(C)C | < 4.28 | < 4.58 | < 4.36 | < 4.44 | < 4.44 | < 4.44 | –
31 | CC(C)=CCC[C@](C)(/C=C/c1ccc(O)cc1)/C=C/c1ccc(C#N)cc1 | < 4.28 | < 4.58 | < 4.36 | < 4.44 | < 4.44 | < 4.44 | –
32 | CC(C)=CCC[C@](C)(/C=C/c1ccc(O)cc1)/C=C/c1cccc(Cl)c1 | < 4.28 | < 4.58 | < 4.36 | < 4.44 | < 4.44 | < 4.44 | –
